Test results reported in ChEMBL document CHEMBL1157539, “Thousands of chemical starting points for antimalarial lead identification” (Nature, 2010).

The compounds below were run on Plasmodium falciparum (assay: GSK_TCMDC: Inhibition of Plasmodium falciparum 3D7 in whole erythrocytes, using parasite LDH activity as an index of growth.). Settings: Plasmodium falciparum, 3D7.
Format: functional, organism-based
CCN(CC)CCN(Cc1ccc(-c2ccc(C(F)(F)F)cc2)cc1)C(=O)Cn1c(CCc2cccc(F)c2F)nc(=O)c2ccc(F)cc21 was tested, and the XC50 was 360 nM.
With CO/C(=C\C=C\c1cc2cc(Cl)c(Cl)cc2[nH]1)C(=O)NCCCNCCN(C)c1ccccc1 the XC50 was 784 nM.
O=C(Nc1ccc(OC2CCN(Cc3ccc(F)cc3)C2)c(Cl)c1)c1ccccc1 (stereo not drawn) showed an XC50 of 787 nM.
Oc1ccccc1CN1CCC2(CCCN(Cc3ccccc3F)C2)C1 (stereo not drawn) was tested, and the XC50 was 679 nM.
In the case of Cc1cc(CN2CCC(Nc3ncc(-c4ccsc4)c4nc(C(F)(F)F)ccc34)CC2)no1, the XC50 is reported as 1100 nM.
In the case of O=C(Nc1ccc(F)c([N+](=O)[O-])c1)Nc1cc(C(F)(F)F)ccc1Cl, the XC50 is reported as 861 nM.
Work on CN1CCC(N2CCN(Cc3cccc(-c4ccc(-c5nc6ccccc6[nH]5)cc4)c3)CC2)CC1 yielded an XC50 of 156 nM.
COc1ccc(-c2cnc3[nH]cc(-c4ccc(C(=O)O)c(C)c4)c3c2)cn1 was tested, and the XC50 was 311 nM.
Compound COc1ccc(C2CC(c3cccs3)=NN2C(=O)c2ccco2)cc1OC (stereo not drawn) has an XC50 of 172 nM.
CC(C)(C)C(=O)Nc1ccc(N2CCN(C(c3ccccc3)c3ccccc3)CC2)c(Cl)c1 gave an XC50 of 662 nM.
Cc1nn(CC(O)Cn2c3ccc(Br)cc3c3cc(Br)ccc32)c(C)c1Br (stereo not drawn) was tested, and the XC50 was 713 nM.
For Cc1cc(N[C@@H](Cc2ccccc2)C(=O)NCc2cccc(F)c2)nc(Nc2ccccc2)n1, the XC50 was 930 nM.
CN1CC=C(c2csc3ccc(NC(=O)Nc4ccc(-c5ccncc5)c5ccccc45)cc23)CC1 was tested, and the XC50 was 804 nM.
CC(C)CNCc1cccc(-c2cccc(CN(CCCN3CCN(C)CC3)C(=O)NC3CCCCC3)c2)c1 showed an XC50 of 761 nM.
Compound NCC(=O)c1cc2c(cc1N)OCCO2 has an XC50 of 1360 nM.
Compound CN1CCN(CC(=O)Nc2ccc(-c3cccc(-c4nc5cc(C(F)(F)F)ccc5[nH]4)c3)cc2)CC1 has an XC50 of 399 nM.
For Cc1cccc2nc(-c3ccc(-c4cccc(NC(=O)c5cnccc5C(F)(F)F)c4)cc3)[nH]c12, the XC50 was 998 nM.
Work on CC(Cc1ccc(OC2CCCCC2)cc1)NCC(O)c1cccc(Cl)c1 (stereo not drawn) yielded an XC50 of 138 nM.
O=C(c1ccc(Cl)cc1)C1CCCN(C2CCN(CCc3ccccc3)CC2)C1 (stereo not drawn) showed an XC50 of 1450 nM.
CC(C)c1ccc2[nH]c(C(=O)NC3CCC(N4CCCc5ccc(C#N)cc5C4)CC3)cc2c1 (stereo not drawn) showed an XC50 of 1090 nM.
CCn1c(C)c(C)c2cc(C(=O)Nc3ccon3)ccc21 was tested, and the XC50 was 732 nM.
O=C(NCCCCN1CCC(c2ccc3c(c2OCc2ccncc2)CCCC3)CC1)c1ccc(-c2ccc(C(F)(F)F)cc2)cc1 gave an XC50 of 168 nM.
With Cc1c(C)n(Cc2ccccc2)c2ncnc(OC3CCN(CC(=O)NCC4CC4)CC3)c12 the XC50 was 1120 nM.
CCCCCCCCNCC(O)c1cc(-c2ccc(Cl)cc2)nc2cc(C)ccc12 (stereo not drawn) was tested, and the XC50 was 82.3 nM.
Compound CCc1ccc(S(=O)(=O)Nc2ccc(CCN3CCC(N4CCCCC4)CC3)cc2)cc1 has an XC50 of 988 nM.
Work on NC(=O)Nc1ccc2cn[nH]c2c1 yielded an XC50 of 205 nM.
In the case of COc1cc(F)c2ncc(Cl)c(C(O)CN3CCC(NC(=O)c4ccc5c(c4)NC(=O)CS5)CC3)c2c1 (stereo not drawn), the XC50 is reported as 680 nM.
CCCCNCc1ccc(-c2nc(CN(CCCN3CCN(C)CC3)C(=O)Nc3cccc(Cl)c3)cs2)cc1 gave an XC50 of 967 nM.
In the case of COc1cc2c(cc1S(=O)(=O)c1ccc(COc3ccc(C(F)(F)F)cc3)cc1)CNCC2, the XC50 is reported as 746 nM.
In the case of O=C1C(C2CCC(c3ccc(Cl)cc3)CC2)=C2OCC3COC2(O3)c2ccccc21 (stereo not drawn), the XC50 is reported as 39 nM.
In the case of OC(CNCCCCCCNCC(O)c1ccc(Cl)c(Cl)c1)c1ccc(Cl)c(Cl)c1 (stereo not drawn), the XC50 is reported as 915 nM.
For COc1c(C2CCN(CCCCNC(=O)c3ccc(-c4ccc(Cl)cc4)cc3)CC2)ccc2c1C(C)(C)CCC2(C)C, the XC50 was 777 nM.
Compound CS(=O)(=O)c1ccc(CNCc2ccc(-c3ccc(-c4nc5cc(C(F)(F)F)ccc5[nH]4)cc3)cc2)cc1 has an XC50 of 706 nM.
For COc1ccc(NC(=O)/C=C/c2ccccc2Cl)cc1OCCN1CCC(N(C)C)CC1, the XC50 was 969 nM.
Work on CN(C)C(=O)C(CC(=O)NCc1ccccc1Cl)N(C)C.CN(C)C(=O)CC(C(=O)NCc1ccccc1Cl)N(C)C (stereo not drawn) yielded an XC50 of 896 nM.
For c1ccc2[nH]c(Nc3ccc(Nc4nc5ccccc5[nH]4)cc3)nc2c1, the XC50 was 783 nM.
Compound c1ccc(Oc2ccc(Nc3ccnc4cc(-c5ccc(CNCCN6CCOCC6)o5)ccc34)cc2)cc1 has an XC50 of 439 nM.
With O=S(=O)(NCCN1CCCC1)c1ccc(-c2ccccc2CNC2Cc3ccccc3C2)cc1 the XC50 was 847 nM.
c1ccc2[nH]c(-c3ccc(-c4ccc(CN5CCN(c6ccncc6)CC5)cc4)s3)nc2c1 was tested, and the XC50 was 202 nM.
In the case of Cc1cc(N[C@@H](CC(C)C)C(=O)NCc2cccs2)nc(Nc2ccccc2)n1, the XC50 is reported as 1130 nM.
COc1ccc2nccc([C@@H](O)CN3CCC(NCc4cnc5snnc5c4)C(F)C3)c2c1 (stereo partly drawn) showed an XC50 of 1350 nM.
Work on Cc1noc(C)c1-c1cccc(CNCc2ccc(-c3ccc(-c4nc5cc(F)ccc5[nH]4)s3)cc2)c1 yielded an XC50 of 423 nM.
With O=C(/C=C/c1ccc(Cl)c(Cl)c1)NCC1CCN(Cc2ccc(O)cc2)CC1 the XC50 was 694 nM.
For COc1ccc(-c2nc(NC(=O)CS(=O)(=O)c3ccc(C)cc3)sc2C)cc1, the XC50 was 401 nM.
Compound NC1=NC(c2ccccc2)(c2ccccc2)C(=O)N1Cc1ccc(-c2cccnc2)cc1 has an XC50 of 704 nM.
O=C(Cn1cc(C(F)(F)F)cc(Cl)c1=O)N1CCN(S(=O)(=O)c2ccc(Cl)cc2)CC1 showed an XC50 of 897 nM.
CN(C)CCOc1cc(NC(=O)Nc2ccc(-c3ccncc3)c(Cl)c2)ccc1I was tested, and the XC50 was 143 nM.
CC(C)(Oc1c(C2CCN(CCCCNC(=O)c3ccc(-c4ccc(Cl)cc4)cc3)CC2)ccc2c1CCCC2)C(N)=O gave an XC50 of 1090 nM.
CCCCCCNC(=O)C1Cc2c([nH]c3ccc(C)cc23)C2(CCN(CCc3ccccc3)CC2)N1 (stereo not drawn) was tested, and the XC50 was 1270 nM.
Work on COc1ccc(-c2ccccc2CNC2Cc3ccccc3C2)cc1S(=O)(=O)NCCN1CCCC1 yielded an XC50 of 870 nM.
O=C(Nc1cccc(CN2CCCN(Cc3cccc(F)c3)CC2)c1)c1ccc(Cl)c(Cl)c1 gave an XC50 of 923 nM.
O=C(N[C@@H](Cc1ccccc1)C(=O)NC1CCCc2ccccc21)c1ccc(O)c(-c2ccc(Cl)c(Cl)c2)c1 (stereo partly drawn) gave an XC50 of 209 nM.
With O=c1cc(NCCCNCc2ccc3c(c2)OC(F)(F)O3)[nH]c2ccccc12 the XC50 was 770 nM.
Work on CCc1n[nH]c(C(=O)Nc2cccc(N3CCCC3)c2)c1C yielded an XC50 of 1460 nM.
O=C(Nc1ccc(Cl)cc1)c1ccc(CN2CCCN(Cc3ccccc3)CC2)cc1 gave an XC50 of 753 nM.
For N#Cc1cccc(C(=O)Nc2cccc(-c3cccc(CN4CCNCC4)c3)c2)c1, the XC50 was 947 nM.
With O=C(Nc1ccc(Cl)cc1)N[C@H]1CCN(CCCCCNC(=O)C2CC2c2ccc(Cl)c(Cl)c2)C1 (stereo partly drawn) the XC50 was 874 nM.
Compound CCc1c(CCNCC/C=C/CCNCCc2ccc(OC)c(OC)c2CC)ccc(OC)c1OC has an XC50 of 771 nM.
In the case of N#Cc1ccc2c(c1)CCN(CCC1CCC(NC(=O)Nc3cnc4ccccc4c3)CC1)C2 (stereo not drawn), the XC50 is reported as 768 nM.
Cc1ccc(NC(=O)Nc2ccc(Br)cc2)cc1OCCN(C)C showed an XC50 of 975 nM.
N#Cc1ccc2c(c1)CCN(CCC1CCC(NC(=O)c3cc4ccc(Br)cc4[nH]3)CC1)C2 (stereo not drawn) showed an XC50 of 756 nM.
CN1CCN(Cc2ccc(-c3cccc(-c4nc5ccccc5[nH]4)c3)cc2)CC1 was tested, and the XC50 was 1390 nM.
O=C(Nc1cccc(CCNCc2ccccc2)c1)Nc1cccc2ccccc12 gave an XC50 of 729 nM.
In the case of Cc1cc(-c2nc3ccc(C(=O)NCc4ccccc4)cc3n2C2CCN(C(=O)c3ccc(-c4ccccc4)cc3)CC2)ccn1, the XC50 is reported as 898 nM.
Compound CCOc1cc(CNCCCCCCNCc2cc(OCC)c(OCC)c3ccccc23)c2ccccc2c1OCC has an XC50 of 284 nM.
Work on CCNc1cc(C)nc(Nc2ccc(NS(=O)(=O)c3ccccc3)cc2)n1 yielded an XC50 of 791 nM.
c1ccc(CCNCc2ccc(-c3cccc(-c4nc5ccccc5[nH]4)c3)cc2)nc1 showed an XC50 of 619 nM.
Work on Cc1cc(-c2cccc(CNC3CCN(C)CC3)c2)ccc1S(=O)(=O)NCc1ccccc1 yielded an XC50 of 819 nM.
Work on O=C(c1ccc(Cl)cc1)N1CCCC(C(=O)N(Cc2nnc(-c3ccccc3Cl)o2)C2CC2)C1 (stereo not drawn) yielded an XC50 of 227 nM.
In the case of Nc1ccc(-c2cc(Cl)cc(Cl)c2)cc1-c1cc2ccccc2[nH]1, the XC50 is reported as 695 nM.
Work on CCOC(=O)c1c(C)n(-c2ccc(Cl)cc2)c2ccc(OC(=O)C=Cc3ccccc3)cc12 yielded an XC50 of 698 nM.
For COc1ccc(-c2cnc3ccc(NCCCO)nn23)cc1OC, the XC50 was 672 nM.
Compound COc1cccc2c(NCCNc3ccnc4c(OC)cccc34)ccnc12 has an XC50 of 267 nM.
Compound Cc1ccc2[nH]c(C3CCCNC3)c(-c3ccncc3)c2c1 (stereo not drawn) has an XC50 of 1230 nM.
For CCCCCC(C)c1cc(O)c2c(c1)OC(C)(C)C=C2C1=CCN(Cc2ccccc2)CC1 (stereo not drawn), the XC50 was 780 nM.
In the case of Cc1[nH]c2cc(Cl)ccc2c1C1=CCN(CCCCC2(C)C(=O)Nc3ccccc32)CC1 (stereo not drawn), the XC50 is reported as 333 nM.
CC(=O)Nc1cccc(C(=O)Nc2ccc(-c3ccc(-c4nc5cccc(C)c5[nH]4)s3)cc2)c1 gave an XC50 of 1740 nM.
Compound Cc1ccc(CNC(=O)c2cnc(N3CCN(c4ccncc4)CC3)c(Cl)c2)cc1 has an XC50 of 1290 nM.
In the case of Cc1cc(N2CCCCC2)nc2ccc(NC(=O)c3cncc(Br)c3)cc12, the XC50 is reported as 718 nM.
CC[C@H](C)CNC(=O)c1cncc(-c2cccc(CNCCCc3ccccc3)c2)c1 gave an XC50 of 1170 nM.
c1ccc(C(c2cccs2)N2CCN(Cc3ccc(OCCCN4CCCCC4)cc3)CC2)cc1 (stereo not drawn) showed an XC50 of 1230 nM.
O=C(NC1CCN(Cc2ccccc2)CC1)c1cccc(-c2nc3ccc(Cl)cc3[nH]2)c1 was tested, and the XC50 was 864 nM.
In the case of CCOc1ccc2[nH]c(-c3ccccc3)cc(=NN=Cc3ccncc3)c2c1, the XC50 is reported as 149 nM.
Work on C=CCOC(=O)N1CCC(CNCc2cccc(-c3cccc(-c4nc5ccccc5[nH]4)c3)c2)C1 (stereo not drawn) yielded an XC50 of 340 nM.
CN1CCC(N2CCN(Cc3ccc(-c4cccc(-c5nc6ccccc6[nH]5)c4)cc3)CC2)CC1 was tested, and the XC50 was 145 nM.
COc1ccc(-n2ccnc2SCC(=O)Nc2cccc(C(F)(F)F)c2)c(OC)c1 showed an XC50 of 220 nM.
CCCCn1c(Sc2ccc(C#N)c([N+](=O)[O-])c2)nnc1-c1cccc(Cl)c1 showed an XC50 of 762 nM.
In the case of CCCCCCn1ccc2c3c(N)nc(N)nc3ccc21, the XC50 is reported as 149 nM.
For CC(C)(C)OC(=O)NCC(=O)N(Cc1ccccc1)Cc1ccccc1, the XC50 was 124 nM.
Oc1ccccc1-c1nc2cccnc2n1CCc1cccc(C(F)(F)F)c1 gave an XC50 of 1270 nM.
With CN(Cc1ccccc1)C1CCN(CCc2c[nH]c3ccc(F)cc23)CC1 the XC50 was 597 nM.
Cn1c(N)cc(-c2cccc(I)c2)c2c(=O)nc(N)nc1-2 gave an XC50 of 269 nM.
In the case of Cn1cnc2c(Nc3ccncc3)nc(-c3ccc(OC(F)(F)F)cc3)nc21, the XC50 is reported as 1100 nM.
COc1cc(OC)c(OC)cc1CN1CCC2(CC1)CN(Cc1ccc(Cl)c(Cl)c1)C(=O)O2 showed an XC50 of 815 nM.
OC(CNC1CCCCC1)Cn1c2ccc(I)cc2c2cc(I)ccc21 (stereo not drawn) was tested, and the XC50 was 337 nM.
CC(=O)C1(c2ccccc2)CCN(CCC2(c3ccc(Cl)c(Cl)c3)CN(C(=O)c3cccc(Cl)c3)CCO2)CC1 (stereo not drawn) gave an XC50 of 854 nM.
COc1cccc(OC)c1C(=O)Nc1cccc(-c2nn3ccccc3c2-c2ccnc(Nc3cccc(F)c3)n2)c1 gave an XC50 of 749 nM.
Cc1cc(N)c2cc(NC(=O)/C=C/c3ccccc3Cl)ccc2n1 showed an XC50 of 405 nM.
